Test results reported in paper PMC2866539, “HLA Class I Binding 9mer Peptides from Influenza A Virus Induce CD4^+ T Cell Responses” (PLoS ONE, 2010).
Where no end group is shown, it is not given here.

Experiments:
[1] = test system: freshly harvested PBMC; settings: cited from earlier work
[2] = test system: PBMC from responding donors; format: cell-based, human
[3] = test system: PBMC from HLA-matched donors; format: cell-based, human
[4] = target: T1, DRA1*0101/DRB1*0101 (Homo sapiens, UniProt P01903+P01911, A100R/D57E/F55L/F60I/F76Y/I96L/L162R/M171V/P40L/Q125E/R42F/V115G/Y59C); test: biochemical; format: binding
T1 construct: made in house

[5] = target: T2, DRA1*0101/DRB5*0101 (Homo sapiens, UniProt P01903+Q30154); test: biochemical; format: binding
T2 construct: made in house

[6] = target: DRA1*0101/DRB3*0301 (Homo sapiens, UniProt P01903+P79483, A169T/A212P/D57E/G115V/L67V/Q178H/R103Q/R40L/Y55F); test: biochemical; format: binding
Sequence of DRA1*0101/DRB3*0301 (P01903 26-254 limits assumed): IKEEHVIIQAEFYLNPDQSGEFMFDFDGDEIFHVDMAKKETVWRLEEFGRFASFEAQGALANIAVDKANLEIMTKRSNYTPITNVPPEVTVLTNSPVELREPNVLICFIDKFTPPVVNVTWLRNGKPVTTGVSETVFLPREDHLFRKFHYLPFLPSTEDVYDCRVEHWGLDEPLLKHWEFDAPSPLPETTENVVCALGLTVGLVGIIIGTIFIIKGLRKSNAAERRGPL
Sequence of DRA1*0101/DRB3*0301 (P79483 30-266 R40L/Y55F/D57E/L67V/R103Q/G115V/A169T/Q178H/A212P limits assumed): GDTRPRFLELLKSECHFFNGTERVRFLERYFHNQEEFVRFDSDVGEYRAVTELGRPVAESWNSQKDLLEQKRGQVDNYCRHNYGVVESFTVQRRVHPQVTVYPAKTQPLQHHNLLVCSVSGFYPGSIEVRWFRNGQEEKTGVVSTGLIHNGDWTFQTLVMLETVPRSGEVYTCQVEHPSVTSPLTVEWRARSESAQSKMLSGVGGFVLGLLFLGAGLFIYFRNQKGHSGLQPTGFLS

[7] = target: DRA1*0101/DRB1*0302 (Homo sapiens, UniProt P01903+P01911, A100K/A102G/A103R/A169T/D57E/F76Y/I96L/K41T/L162R/M171V/P40S/Q125H/Q178H/Q39Y/R42S/S66N/T106N/T262R/V115G/W38E/Y61H); test: biochemical; format: binding
[8] = target: T3, DPA1*0103/DPB1*0401 (Homo sapiens, UniProt P04440+P20036); test: biochemical; format: binding
T3 construct: made in house
T3 sequence (P20036 32-222 limits assumed): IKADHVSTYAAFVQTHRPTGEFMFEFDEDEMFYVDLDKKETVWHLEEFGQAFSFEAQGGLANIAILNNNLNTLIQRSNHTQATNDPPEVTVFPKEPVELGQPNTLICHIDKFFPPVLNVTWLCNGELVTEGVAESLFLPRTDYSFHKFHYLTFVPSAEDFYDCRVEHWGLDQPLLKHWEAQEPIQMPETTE
T3 sequence (P04440 30-225 limits assumed): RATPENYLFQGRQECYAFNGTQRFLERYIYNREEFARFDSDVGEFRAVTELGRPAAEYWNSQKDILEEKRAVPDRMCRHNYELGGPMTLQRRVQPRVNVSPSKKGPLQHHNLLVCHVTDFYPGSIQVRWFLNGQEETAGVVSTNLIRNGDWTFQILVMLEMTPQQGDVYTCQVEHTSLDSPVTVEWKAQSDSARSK

[9] = target: DRA1*0101/DRB1*0301 (Homo sapiens, UniProt P01903+P01911, A100K/A102G/A103R/A169T/F55Y/I96L/K41T/L162R/M171V/P40S/Q125H/Q178H/Q39Y/R42S/S66N/T106N/T262R/W38E/Y61H); test: biochemical; format: binding
Sequence of DRA1*0101/DRB1*0301 (P01903 26-254 limits assumed, other chains not shown): as the sequence (P01903 26-254 limits assumed) above

[10] = target: T4, DRA1*0101/DRB1*0401 (Homo sapiens, UniProt P01903+P01911, A100K/A169T/F76Y/I96L/K127E/L162R/M171V/N62H/P40V/Q125Y/R42H/S133A/S149N/S66Y/V115G/V209L/W38E); test: biochemical; format: binding
T4 construct: made in house

[11] = target: HLA-B7 (Homo sapiens, UniProt P01889); test: biochemical; format: binding
Sequence of HLA-B7 (P01889 25-299): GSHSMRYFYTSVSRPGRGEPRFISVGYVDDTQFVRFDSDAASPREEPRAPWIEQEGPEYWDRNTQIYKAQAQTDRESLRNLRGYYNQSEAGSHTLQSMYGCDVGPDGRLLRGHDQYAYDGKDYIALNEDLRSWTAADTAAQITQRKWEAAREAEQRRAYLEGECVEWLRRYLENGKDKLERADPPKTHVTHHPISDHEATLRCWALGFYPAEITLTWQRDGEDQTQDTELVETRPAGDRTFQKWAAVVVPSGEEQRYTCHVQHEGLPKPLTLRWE
Sequence of HLA-B7 (P61769 21-119, further chain): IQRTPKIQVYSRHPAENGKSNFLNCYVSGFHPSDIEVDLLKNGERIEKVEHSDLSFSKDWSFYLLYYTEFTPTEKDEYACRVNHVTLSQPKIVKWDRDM

[12] = target: HLA-A3 (Homo sapiens, UniProt P04439); test: biochemical
Sequence of HLA-A3 (P04439 25-299): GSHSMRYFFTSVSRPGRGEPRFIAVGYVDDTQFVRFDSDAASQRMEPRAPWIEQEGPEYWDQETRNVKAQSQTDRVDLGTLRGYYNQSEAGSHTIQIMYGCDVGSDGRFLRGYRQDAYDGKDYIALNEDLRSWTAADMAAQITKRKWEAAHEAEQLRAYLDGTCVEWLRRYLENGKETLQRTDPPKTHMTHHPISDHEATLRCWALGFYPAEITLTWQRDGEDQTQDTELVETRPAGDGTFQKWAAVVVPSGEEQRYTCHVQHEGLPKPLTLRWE
Sequence of HLA-A3 (P61769 21-119, further chain): as the sequence (P61769 21-119, further chain) above

Row | Sequence | antigenicity in ELISPOT of Assarsson et al [1] | SFC/1×10^5 PBMC+Peptide, IVA12 [2] | SFC/1×10^5 PBMC+Peptide, Isotype [2] | SFC/1×10^5 PBMC+Peptide, W6/32 [2] | +Peptide, IFNγ spot forming cell numbers [3] | Kd [4] | Kd [5] | Kd [6] | Kd [7] | Kd [8] | Kd [9] | Kd [10] | Kd [11] | Kd [12]
1 | DPLVVAASI [PF-146] | failed to show antigenicity | 2±2 SFC/1×10^5 PBMC | 17±1 SFC/1×10^5 PBMC | 18±3 SFC/1×10^5 PBMC | 42±8 per 10^5 PBMC | – | – | – | – | – | – | – | – | –
2 | ETIVLLRAF [PF-113] | – | – | – | – | – | 3.73 µM | 780 nM | > 5 µM | > 5 µM | > 5 µM | > 5 µM | > 5 µM | – | –
3 | IAPWYAFAL [PF-154] | – | – | – | – | – | > 5 µM | 1700 nM | > 5 µM | > 5 µM | > 5 µM | > 5 µM | > 5 µM | – | –
4 | ILWILDRLF [PF-140] | – | 1±1 SFC/1×10^5 PBMC | 32±3 SFC/1×10^5 PBMC | 43±19 SFC/1×10^5 PBMC | 17±4 per 10^5 PBMC | – | – | – | – | – | – | – | – | –
5 | IMLKANFSV [PF-103] | – | – | – | – | – | 3.43 µM | > 5000 nM | 0.018 µM | > 5 µM | > 5 µM | > 5 µM | 1.39 µM | – | –
6 | LMNELGVPF [PF-141] | – | – | – | – | – | > 5 µM | > 5000 nM | 4.01 µM | > 5 µM | > 5 µM | > 5 µM | > 5 µM | – | –
7 | LPFHNVHPL [PF-147] | – | – | – | – | – | > 5 µM | 3700 nM | > 5 µM | > 5 µM | > 5 µM | > 5 µM | > 5 µM | 6 nM | –
8 | LPFQNVHPV [PF-150] | – | – | – | – | – | > 5 µM | 1200 nM | > 5 µM | > 5 µM | > 5 µM | > 5 µM | > 5 µM | 161 nM | –
9 | LVSLGAISF [PF-148] | – | – | – | – | – | 4.34 µM | > 5000 nM | > 5 µM | > 5 µM | > 5 µM | > 5 µM | > 5 µM | – | –
10 | TIHDRIPHR [PF-116] | – | – | – | – | – | – | – | – | – | – | – | – | – | 62 nM
11 | VTIGECPKY [PF-110] | – | 5±3 SFC/1×10^5 PBMC | 163±28 SFC/1×10^5 PBMC | 165±4 SFC/1×10^5 PBMC | 247±13 per 10^5 PBMC | – | – | – | – | – | – | – | – | –
12 | YILLKKILSSRFNQM [hypothetical protein 239–253, reference compound] | – | – | – | – | – | – | 17 nM | – | – | 0.025 µM | – | – | – | –
13 | YKYVKQNTLKLAT [HA306–318, reference compound] | – | – | – | – | – | 0.108 µM | 12 nM | 0.003 µM | 0.053 µM | > 5 µM | 0.026 µM | 0.015 µM | – | –
14 | YPRYPGVRC [PF-145] | – | – | – | – | – | – | – | – | – | – | – | – | 11 nM | –
15 | YVKQNTLKL [PF-152] | – | – | – | – | – | 1.2 µM | 405 nM | 0.356 µM | 2.22 µM | > 5 µM | > 5 µM | 0.226 µM | 72 nM | –
